Several values for one entry are separate records, joined by “and”; a condition that tells them apart may be missing. Equal values may be shown once. Where a SMILES comes first, the peptide text is derived from it. [ ]: non-standard residue; d: D form. Hyp = O=C(O)[C@@H]1C[C@@H](O)CN1
What was measured:
[1] = test system: IL-6 cytokine release in poly I:C stimulated primary human corneal epithelial cells; assay: Soluble IL-6 cytokine release in poly I:C stimulated primary human corneal epithelial cells by ELISA (Example 6); format: cell-based
Description: To determine the effect of compound by assessing the soluble IL-6 cytokine release in poly I:C stimulated primary human corneal epithelial cells by ELISA. • Test System: Primary Human Corneal Epithelial cells • Assay Format: 96-well plate format • Method of Detection: Enzyme-linked immunosorbent assay • Assay Controls: Hinokitiol Assay protocol as shown below was used to determine the significant effect of test compounds. The data was statistically analyzed by one-way ANOVA with a Bonferroni post test comparing all the columns. The significance was represented by the p value.

[2] = test system: IL-6 release in human PBMCs stimulated by poly(I:C), LPS or PMA/Ionomycin; assay: IL-6 ELISA in stimulated human PBMCs, 2nd pilot study (Example 8); format: cell-based; conditions: for IL-6 (ELISA), individual wells / IL-6 (ELISA), Mean: 24 hr
Description: Human PBMCs frozen in a cryopreserve was thawed, washed with Hank's Balanced Salt Solution containing 10% Fetal bovine serum, and seeded onto a 24-well plate at a density of 1×10^6 cells/well with culture RPMI media containing 10% Fetal bovine serum in growth media in a 24 well plate for 12, 24, and 48 hrs and maintained at 37° C. in an atmosphere of 95% air and 5% CO2.
Human PBMCs was pretreated with a test compound; YDE-011 at 30 uM, 1 μM for 2 h before stimulation. An equal volume of 0.5% DMSO was used as a vehicle control. […] The supernatants from treated cells were harvested at 24 h and placed in 96 well for Human IL-6 ELISAS measurement according to the manufacturer's instructions (Invitrogen, CA, USA). […]
IL-6 measurement was performed by the sandwich ELISA method. The capture antibody was coated on a 96-well plate (Corning™ Costar™ 9018, NY, USA) at 100 ul/well and incubated overnight at 4° C. The interaction was blocked at room temperature for 2 h to prevent non-specific binding of the antigen-antibody. Then, the plate was incubated overnight at 4° C. with 1:200 diluted cell supernatants and standard dilute serial dilutions at 100 ul/well. Detection antibody was dispensed into the plate at 100 ul/well, and then allowed to incubate at a room temperature for 1 h. Finally, streptavidin-HRP (100 ul/well) was incubated at room temperature for 30 min. […] The sample reading was measured at 450 nm wavelength and 570 nm, and the quantification of the sample was converted as concentration (ng/ml) based on the standard curve extrapolation.

[3] = test system: rats with ELGE dry eye condition; assay: Corneal damage induced by ELGE in rats; format: in vivo, rat

| SMILES | Poly I:C induced IL-6 cytokine release (in words) [1] | tested concentrations with significant attenuation of IL-6 cytokine release [1] | IL-6 induction in PBMCs (in words) ([2]; 1 uM, poly I:C, LPS or PMA/Ionomycin) | IL-6 (ELISA), individual wells ([2]; PBMC + LPS(5 ug/ml) + YDE-011 1 uM) | IL-6 (ELISA), Mean ([2]; PBMC + LPS(5 ug/ml) + YDE-011 1 uM, LPS alone Mean 26093.3) | IL-6 (ELISA), individual wells ([2]; PBMC + LPS(5 ug/ml) + YDE-011 30 uM) | IL-6 (ELISA), Mean ([2]; PBMC + LPS(5 ug/ml) + YDE-011 30 uM, LPS alone Mean 26093.3) | IL-6 (ELISA), individual wells ([2]; PBMC + PMA(1 ng/ml)/Ionomycin(0.5 ug/ml) + YDE-011 1 uM) | IL-6 (ELISA), Mean ([2]; PBMC + PMA(1 ng/ml)/Ionomycin(0.5 ug/ml) + YDE-011 1 uM, stimulant alone Mean 4075.5) | IL-6 (ELISA), individual wells ([2]; PBMC + PMA(1 ng/ml)/Ionomycin(0.5 ug/ml) + YDE-011 30 uM) | IL-6 (ELISA), Mean ([2]; PBMC + PMA(1 ng/ml)/Ionomycin(0.5 ug/ml) + YDE-011 30 uM, stimulant alone Mean 4075.5) | IL-6 (ELISA), individual wells ([2]; PBMC + Poly I:C(25 ug/ml) + YDE-011 1 uM) | IL-6 (ELISA), Mean ([2]; PBMC + Poly I:C(25 ug/ml) + YDE-011 1 uM, Poly I:C alone Mean 21429.5) | IL-6 (ELISA), individual wells ([2]; PBMC + Poly I:C(25 ug/ml) + YDE-011 30 uM) | IL-6 (ELISA), Mean ([2]; PBMC + Poly I:C(25 ug/ml) + YDE-011 30 uM, Poly I:C alone Mean 21429.5) | IL-6 induction in PBMCs (in words) ([2]; higher concentration) | IL-6 levels induced by LPS or poly I:C (in words) ([2]; pilot studies) | corneal damage induced by ELGE (in words) [3] |
| --- | --- | --- | --- | --- | --- | --- | --- | --- | --- | --- | --- | --- | --- | --- | --- | --- | --- | --- |
| CC(C)C[C@H](NC(=O)CNC(=O)[C@H](CC(C)C)NC(=O)[C@H](CCC(N)=O)NC(=O)CNC(=O)[C@@H]1C[C@@H](O)CN1)C(=O)N[C@@H](C)C(=O)NCC(=O)N1CCC[C@H]1C(=O)N[C@@H](CCCCN)C(=O)O [YDE-011] (H-[Hyp]GQLGLAGPK-OH) | attenuate Poly I:C induced of IL-6 cytokine release in a dose dependent manner | 30 μM, 10 μM, 1 μM and 0.1 μM | effectively and significantly reduced IL-6 induction | 14532.1 and 12561.2 | 13546.7 | 23199.5 and 18310.8 | 20755.2 | 2817.2 and 3828.2 | 3322.7 | 3114.6 and 3025 | 3069.8 | 13701 and 12585.1 | 13143.1 | 39230.7 and 30634.7 | 34932.7 | diminished at a higher concentration | significantly reduced IL-6 levels induced by LPS or poly I:C |  |
| CC(C)C[C@H](NC(=O)[C@H](CCC(N)=O)NC(=O)CNC(=O)[C@@H]1C[C@@H](O)CN1)C(=O)NCC(=O)O [YDE-043] (H-[Hyp]GQLG-OH; N-terminus and C-terminus assumed) | attenuate Poly I:C induced of IL-6 cytokine release in a dose dependent manner | 30 μM, 10 μM, 1 μM and 0.1 μM |  |  |  |  |  |  |  |  |  |  |  |  |  |  |  | effective in improving corneal damaged induced by ELGE |
